Laboratory results published in paper PMC6445713 (Molecular cancer research : MCR, 2018).
*1 amine or outer side, *2 acyl side, *3 side chain or, on linkers, in order; H or OH if unused. Where a SMILES comes first, the peptide text is derived from it. Bridges are numbered along the chain shown (N, C = ends). [ ]: non-standard residue; d: D form. The star is where a group is joined. Leu(3R-OH,Nα-propionyl) = CCC(=O)N[C@H](C(=O)*)[C@H](O)C(C)C; X1 = CC(C)[C@@H](O[*:3])[C@H](N[*:1])C(=O)[*:2]; NMeT = CN[C@H](C(=O)O)[C@@H](C)O; dPhLac = O=C(O)[C@H](O)Cc1ccccc1; NMeA = CN[C@@H](C)C(=O)O; NMeDha = C=C(NC)C(=O)O

Columns and labels:
Gαq [1] = target: T1, Gαq (Rattus norvegicus, UniProt P82471); experiment: […]GTPγS radioligand filter binding
T1 sequence (P82471 1-359): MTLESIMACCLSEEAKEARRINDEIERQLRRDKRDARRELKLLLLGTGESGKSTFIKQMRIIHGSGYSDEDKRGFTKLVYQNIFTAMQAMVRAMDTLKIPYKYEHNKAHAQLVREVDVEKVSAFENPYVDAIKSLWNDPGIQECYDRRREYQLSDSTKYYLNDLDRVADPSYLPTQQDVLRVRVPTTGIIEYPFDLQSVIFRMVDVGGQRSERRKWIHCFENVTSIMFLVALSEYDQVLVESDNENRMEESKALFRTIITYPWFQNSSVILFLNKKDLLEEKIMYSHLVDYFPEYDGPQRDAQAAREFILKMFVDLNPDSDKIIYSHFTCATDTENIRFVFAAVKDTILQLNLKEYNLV

Gαq-Q209L (GαqΔ34-Q209L) [2] = target: T2, Gαq-Q209L (GαqΔ34-Q209L) (Mus musculus, UniProt P21279, Q209L); experiment: […]GTPγS radioligand filter binding
T2 sequence (P21279 35-359 Q209L): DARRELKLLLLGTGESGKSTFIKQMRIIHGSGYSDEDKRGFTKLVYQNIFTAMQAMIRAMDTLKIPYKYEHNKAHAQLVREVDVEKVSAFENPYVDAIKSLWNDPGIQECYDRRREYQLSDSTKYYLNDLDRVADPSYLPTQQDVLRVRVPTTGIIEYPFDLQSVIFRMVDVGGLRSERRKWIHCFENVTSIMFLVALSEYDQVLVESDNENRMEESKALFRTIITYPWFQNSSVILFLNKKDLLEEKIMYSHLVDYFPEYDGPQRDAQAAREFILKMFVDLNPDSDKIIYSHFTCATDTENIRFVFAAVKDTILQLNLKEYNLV

Gαq [3] = target: Gαq (Rattus norvegicus, UniProt P82471); experiment: […]GTPγS filter-binding assay with purified protein preincubated with FR; type: biochemical
Gαq-Q209L (GαqΔ34-Q209L) [4] = target: T2, Gαq-Q209L (GαqΔ34-Q209L); experiment: as above; type: biochemical

SMILES	[35S]GTPγS radioligand filter binding (Gαq [1])	[35S]GTPγS radioligand filter binding (Gαq-Q209L (GαqΔ34-Q209L) [2])	IC50 (Gαq [3]) [nM]	IC50 (Gαq-Q209L (GαqΔ34-Q209L) [4]) [nM]
Nc1nc2c(ncn2[C@@H]2O[C@H](COP(=O)(O)OP(=O)(O)OP(O)(O)=S)[C@@H](O)[C@H]2O)c(=O)[nH]1 [GTPγS]	GTPγS binding of purified Gαq and Gαq-Q209L was measured using a filter-binding method	GTPγS binding of purified Gαq and Gαq-Q209L was measured using a filter-binding method	–	–
C=C1C(=O)N[C@@H](C)C(=O)N(C)[C@@H](C)C(=O)N[C@@H]([C@H](OC(=O)[C@@H](NC(=O)CC)[C@H](O)C(C)C)C(C)C)C(=O)N(C)[C@@H]([C@@H](C)OC)C(=O)O[C@H](C(C)C)[C@H](NC(C)=O)C(=O)O[C@H](Cc2ccccc2)C(=O)N1C [FR, FR900359] (Ac-[X1][dPhLac][NMeDha]A[NMeA][X1](Leu(3R-OH,Nα-propionyl))[NMeT](Me); ester 1-C)	–	–	~75	~75
